How the values were obtained:
[1] = wn = mass fraction of the nth substance listed; conditions: 101.33 kPa, Liquid; for speed of sound: Frequency=3 MHz, Linear variable-path acoustic interferometer; for mass density: Pycnometric method; for viscosity: Capillary tube (Ostwald / Ubbelohde) method
[2] = 101.33 kPa, Liquid; for speed of sound: Frequency=3 MHz, Linear variable-path acoustic interferometer; for viscosity: Capillary tube (Ostwald / Ubbelohde) method
[3] = mn = molality of the nth substance listed, in mol/kg; conditions: 101.33 kPa, Liquid, m2 = 0; for speed of sound: Frequency=3 MHz, Linear variable-path acoustic interferometer; for viscosity: Capillary tube (Ostwald / Ubbelohde) method

O=C[C@H](O)[C@@H](O)[C@H](O)[C@H](O)CO [D-glucose] + O
[1]
Conditions | mass density, w1 = 0.025 [kg/m3] | mass density, w1 = 0.05 [kg/m3] | speed of sound, w1 = 0.025 [m/s] | speed of sound, w1 = 0.05 [m/s] | viscosity, w1 = 0.025 [mPa·s] | viscosity, w1 = 0.05 [mPa·s]
293.15 K | – | 1016.28 | 1492.9 | – | – | –
298.15 K | 1005.91 | 1014.69 | – | 1514.3 | 0.9202 | 0.9767
303.15 K | 1004.61 | 1013.08 | 1517.4 | 1525.1 | 0.8167 | 0.8605
308.15 K | 1003.21 | 1011.47 | – | 1535.7 | 0.7324 | 0.7697
313.15 K | 1001.61 | 1009.85 | 1536.9 | 1545.6 | 0.661 | 0.6945
318.15 K | 999.76 | – | – | 1554.5 | 0.6035 | 0.6334

OC[C@H]1O[C@@](CO)(O[C@H]2O[C@H](CO)[C@@H](O)[C@H](O)[C@H]2O)[C@@H](O)[C@@H]1O [D-sucrose] + O
[1]
Conditions | mass density, w1 = 0.025 [kg/m3] | mass density, w1 = 0.05 [kg/m3] | speed of sound, w1 = 0.025 [m/s] | speed of sound, w1 = 0.05 [m/s] | viscosity, w1 = 0.025 [mPa·s] | viscosity, w1 = 0.05 [mPa·s]
293.15 K | 1009.22 | 1018.91 | 1497.2 | 1501.4 | – | –
298.15 K | 1007.51 | 1017.19 | 1511.2 | 1516.5 | 0.9618 | 1.011
303.15 K | 1005.76 | 1015.45 | 1521.5 | 1526.6 | 0.8761 | 0.9129
308.15 K | 1004.05 | 1013.72 | 1532.1 | 1537.7 | 0.7969 | 0.8285
313.15 K | 1002.31 | 1011.98 | 1542.5 | 1547.7 | 0.7057 | 0.7457
318.15 K | 1000.56 | 1010.23 | 1552 | 1557.2 | 0.6624 | 0.6946

O=C[C@H](O)[C@@H](O)[C@@H](O)CO [L-arabinose] + O
[1]
Conditions | mass density, w1 = 0.025 [kg/m3] | mass density, w1 = 0.05 [kg/m3] | speed of sound, w1 = 0.025 [m/s] | speed of sound, w1 = 0.05 [m/s] | viscosity, w1 = 0.025 [mPa·s] | viscosity, w1 = 0.05 [mPa·s]
293.15 K | 1007.35 | 1016.09 | 1491.4 | 1502.3 | – | –
298.15 K | 1005.77 | 1014.44 | 1506.7 | 1516.9 | 0.9141 | 0.9695
303.15 K | 1004.18 | 1012.79 | 1517 | 1526.8 | 0.8116 | 0.8573
308.15 K | 1002.6 | 1011.13 | 1528.6 | 1537.9 | 0.7304 | 0.7658
313.15 K | 1001.01 | 1009.46 | 1536.8 | 1545.7 | 0.6591 | 0.689
318.15 K | 999.43 | 1007.8 | 1543.1 | 1551.8 | 0.6006 | 0.6295

O [water]
[2]
Conditions | speed of sound [m/s] | viscosity [mPa·s]
293.15 K | 1483.6 | –
298.15 K | – | 0.8903
303.15 K | 1508.4 | 0.7973
308.15 K | – | 0.719
313.15 K | 1526.8 | 0.6526
318.15 K | 1533 | 0.5972

O [water] + N[C@@H](Cc1ccccc1)C(=O)O
[3]
Conditions | speed of sound [m/s] | viscosity [mPa·s]
293.15 K | 1483.6 | –
298.15 K | – | 0.8903
303.15 K | 1508.4 | 0.7973
308.15 K | – | 0.719
313.15 K | 1526.8 | 0.6526
318.15 K | 1533 | 0.5972

Conditions | mass density [kg/m3]
[3], 308.15 K, Pycnometric method | 994.07
